In patent publication US12371454B2, “Cyclic peptide compound having Kras inhibitory action” (priority 2019, dated 2025):
Starred links: 1 amine or outer side, 2 acyl side, 3 side chain; linkers in the order of their positions; H or OH if unused. Positions of bridges follow the written chain, without caps; N, C: chain ends. Non-standard residues stand in square brackets, D forms with d. Residues, ends and D or L forms follow the SMILES beside them. *: point of attachment. hPhe(3-Cl-4-CF3) = N[C@@H](CCc1ccc(C(F)(F)F)c(Cl)c1)C(=O)O; hPhe(3-F,4-CF3) = N[C@@H](CCc1ccc(C(F)(F)F)c(F)c1)C(=O)O; hPhe(4-CF3) = N[C@@H](CCc1ccc(C(F)(F)F)cc1)C(=O)O; NEtPhe(4-Cl) = CCN[C@@H](Cc1ccc(Cl)cc1)C(=O)O; NMePhe(4-Cl) = CN[C@@H](Cc1ccc(Cl)cc1)C(=O)O; NMePhe(4-Me) = CN[C@@H](Cc1ccc(C)cc1)C(=O)O; NMePhe(2-Cl) = CN[C@@H](Cc1ccccc1Cl)C(=O)O; NMedβ3hAla = C[C@H](CC(=O)[*:2])N(C)[*:1]; NMeGly(cPent) = CN[C@H](C(=O)O)C1CCCC1; NMe3Pal = CN[C@@H](Cc1cccnc1)C(=O)O; NMeCha = CN[C@@H](CC1CCCCC1)C(=O)O; NMeChg = CN[C@H](C(=O)O)C1CCCCC1; NMeF = CN[C@@H](Cc1ccccc1)C(=O)O; NMeI = CC[C@H](C)[C@H](NC)C(=O)O; NMeD = CN[C@@H](CC(=O)O)C(=O)O; NMeL = CN[C@@H](CC(C)C)C(=O)O; NMeV = CN[C@H](C(=O)O)C(C)C; Trifluoroethyl = FC(F)(F)C*; d(β3hA) = C[C@@H](N)CC(=O)O; NMeA = CN[C@@H](C)C(=O)O; NMeAib = CNC(C)(C)C(=O)O; Nle = CCCC[C@H](N)C(=O)O; Piperidide = C1CCN(*)CC1; Pyrrolidide = C1CCN(*)C1; dNMeA = CN[C@H](C)C(=O)O; Ac5c = NC1(C(=O)O)CCCC1; Aze = O=C(O)[C@@H]1CCN1; Ac4c = NC1(C(=O)O)CCC1; Sar = CNCC(=O)O

target: T1, Kras and SOS1 (biotin-tagged human Kras loaded with GDP, His-tagged human SOS1) (Homo sapiens, UniProt P01116, G12D); experiment: Protein-protein interaction inhibition between Kras and SOS1 (KrasGl2D-SOS PPI) using AlphaScreen; assay type: binding; settings: AlphaScreen; biotin-tagged human Kras loaded with GDP, His-tagged human SOS1; read-out: KRAS G12D-SOS PPI IC50
T1 construct: made in house; host or cells: E. coli (stated for Kras only)
Outline: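 AlphaScreen format: Ni donor beads capture His-SOS1, streptavidin acceptor beads capture biotinylated Kras (E. coli-expressed, GDP-loaded post-purification). Excite 680 nm, read 520-620 nm.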

T1 sequence (P01116 1-188 isoform P01116-2 G12D): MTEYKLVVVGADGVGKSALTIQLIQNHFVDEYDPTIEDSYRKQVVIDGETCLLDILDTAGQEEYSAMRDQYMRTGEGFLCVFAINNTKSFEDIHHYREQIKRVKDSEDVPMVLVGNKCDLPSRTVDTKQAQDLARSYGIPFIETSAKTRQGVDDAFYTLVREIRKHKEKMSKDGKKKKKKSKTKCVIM

Compound | IC50
CC(C)C[C@H]1C(=O)N[C@@H](COCC(F)(F)F)C(=O)N(C)CC(=O)N(C)CC(=O)N(C)[C@@H](CC2CCCCC2)C(=O)N(C)CC(=O)N[C@@H](CCc2ccc(C(F)(F)F)c(Cl)c2)C(=O)N2CCC[C@H]2C(=O)NC2(CCCC2)C(=O)N(C)[C@@H](C2CCCCC2)C(=O)N(C)[C@H](C(=O)N2CCCCC2)CC(=O)N1C [Compound 894] ([NMeL]S(Trifluoroethyl)[Sar][Sar][NMeCha][Sar][hPhe(3-Cl-4-CF3)]P[Ac5c][NMeChg][NMeD]-Piperidide; lactam N-11) | 0.011 µM
CCCC[C@@H]1NC(=O)[C@H](CCc2ccc(C(F)(F)F)c(Cl)c2)NC(=O)CN(C)C(=O)[C@H](Cc2ccc(Cl)cc2)N(CC)C(=O)CN(C)C(=O)CN(C)C(=O)[C@H]([C@@H](C)CC)NC(=O)[C@H](CC(C)C)N(C)C(=O)C[C@@H](C(=O)N2CCCCC2)N(C)C(=O)[C@H](CC(C)C)NC(=O)C(C)(C)N(C)C1=O [Compound 895] ([NMeL]I[Sar][Sar][NEtPhe(4-Cl)][Sar][hPhe(3-Cl-4-CF3)][Nle][NMeAib]L[NMeD]-Piperidide; lactam N-11) | 0.0084 µM
CC[C@H](C)[C@@H]1NC(=O)[C@H](C)N(C)C(=O)C[C@@H](C)NC(=O)[C@H](CC(C)C)N(C)C(=O)[C@H](CC(C)C)N(C)C(=O)[C@@H]2CCCN2C(=O)[C@H](CCc2ccc(C(F)(F)F)cc2)NC(=O)CN(C)C(=O)[C@H](Cc2ccc(Cl)cc2)N(C)C(=O)CN(C)C(=O)CN(C)C1=O [Compound 902] (cyclo(I[Sar][Sar][NMePhe(4-Cl)][Sar][hPhe(4-CF3)]P[NMeL][NMeL][d(β3hA)][NMeA])) | 0.14 µM
CC[C@H](C)[C@@H]1NC(=O)[C@H](CC(C)C)N(C)C(=O)C[C@@H](C)N(C)C(=O)[C@H](CC(C)C)NC(=O)C(C)(C)N(C)C(=O)[C@H](CC(C)C)NC(=O)[C@H](CCc2ccc(C(F)(F)F)c(F)c2)NC(=O)CN(C)C(=O)[C@H](CC2CCCCC2)N(C)C(=O)CN(C)C(=O)[C@@H]2CCN2C1=O [Compound 905] (cyclo([Aze][Sar][NMeCha][Sar][hPhe(3-F,4-CF3)]L[NMeAib]L[NMedβ3hAla][NMeL]I)) | 0.18 µM
CC[C@H](C)[C@@H]1NC(=O)[C@H](C)N(C)C(=O)C[C@@H](C(=O)N2CCCC2)N(C)C(=O)[C@H](C(C)C)N(C)C(=O)C2(CCC2)NC(=O)[C@H](Cc2ccccc2Cl)N(C)C(=O)[C@H](CCc2ccc(C(F)(F)F)c(Cl)c2)NC(=O)CN(C)C(=O)[C@H](CC2CCCCC2)N(C)C(=O)CN(C)C(=O)CN(C)C1=O [Compound 906] ([NMeA]I[Sar][Sar][NMeCha][Sar][hPhe(3-Cl-4-CF3)][NMePhe(2-Cl)][Ac4c][NMeV][NMeD]-Pyrrolidide; lactam N-11) | 0.0027 µM
CC[C@H](C)[C@@H]1NC(=O)[C@H](CC(C)C)N(C)C(=O)C[C@@H](C(=O)N(C)C)N(C)C(=O)[C@H](C2CCCC2)N(C)C(=O)C2(CCCC2)NC(=O)[C@H](Cc2ccc(C)cc2)N(C)C(=O)[C@H](CCc2ccc(C(F)(F)F)c(Cl)c2)NC(=O)CN(C)C(=O)[C@H](CC2CCCCC2)N(C)C(=O)[C@@H]2CCN2C(=O)[C@H](C)N(C)C1=O [Compound 908] ([NMeL]I[NMeA][Aze][NMeCha][Sar][hPhe(3-Cl-4-CF3)][NMePhe(4-Me)][Ac5c][NMeGly(cPent)][NMeD]-NMe2; lactam N-11) | 0.039 µM
CC[C@H](C)[C@@H]1NC(=O)[C@H](C)N(C)C(=O)C[C@@H](C)NC(=O)[C@H](C(C)C)N(C)C(=O)[C@H](Cc2ccccc2)N(C)C(=O)[C@H](CC(C)C)N(C)C(=O)[C@H](CCc2ccc(C(F)(F)F)cc2)NC(=O)CN(C)C(=O)[C@H](Cc2ccc(Cl)cc2)N(C)C(=O)[C@@H]2CCN2C(=O)CN(C)C1=O [Compound 913] (cyclo([Aze][NMePhe(4-Cl)][Sar][hPhe(4-CF3)][NMeL][NMeF][NMeV][d(β3hA)][NMeA]I[Sar])) | 0.053 µM
CC[C@H](C)[C@@H]1NC(=O)[C@H](CC(C)C)N(C)C(=O)C[C@@H](C(=O)N(C)C)N(C)C(=O)[C@H]([C@@H](C)CC)N(C)C(=O)[C@H](C(C)C)NC(=O)[C@@H](C)NC(=O)[C@H](CCc2ccc(C(F)(F)F)c(Cl)c2)NC(=O)CN(C)C(=O)[C@H](Cc2ccc(C)cc2)N(C)C(=O)[C@@H]2CCN2C(=O)[C@H](C)N(C)C1=O [Compound 915] ([NMeL]I[NMeA][Aze][NMePhe(4-Me)][Sar][hPhe(3-Cl-4-CF3)][dA]V[NMeI][NMeD]-NMe2; lactam N-11) | 0.04 µM
CC[C@H](C)[C@@H]1NC(=O)[C@H](CC(C)C)N(C)C(=O)C[C@@H](C(=O)N2CCCCC2)N(C)C(=O)[C@H](C2CCCCC2)N(C)C(=O)[C@@H](C)NC(=O)[C@@H]2CCCN2C(=O)[C@H](CCc2ccc(C(F)(F)F)c(Cl)c2)NC(=O)CN(C)C(=O)[C@H](CC2CCCCC2)N(C)C(=O)CN(C)C(=O)CN(C)C1=O [Compound 917] ([NMeL]I[Sar][Sar][NMeCha][Sar][hPhe(3-Cl-4-CF3)]P[dA][NMeChg][NMeD]-Piperidide; lactam N-11) | 0.002 µM
CC[C@H](C)[C@@H]1NC(=O)[C@H](C)N(C)C(=O)C[C@@H](C)NC(=O)[C@H](C2CCCC2)N(C)C(=O)C2(CCCC2)NC(=O)[C@@H]2CCCN2C(=O)[C@H](CCc2ccc(C(F)(F)F)c(Cl)c2)NC(=O)[C@@H](C)N(C)C(=O)[C@H](Cc2cccnc2)N(C)C(=O)CN(C)C(=O)CN(C)C1=O [Compound 919] (cyclo([Ac5c][NMeGly(cPent)][d(β3hA)][NMeA]I[Sar][Sar][NMe3Pal][dNMeA][hPhe(3-Cl-4-CF3)]P)) | 0.052 µM
